Assays:
Format in all cases: cell-based, human
HT-29 cells = assay: Cell survival assay (antiproliferative IC50); conditions: Homo sapiens
Description: (§1) Human colon carcinoma COLO205 and HT-29 cell lines (American Type Culture Collection (ATTC), Manassas, Va.) and the leukemia cell line HL-60 were maintained at 37° C. in 5% CO2 air in RPMI 1640 medium supplemented with 10% heat-inactivated fetal bovine serum (Gibco BRL, Grand Island, N.Y.), 100 units/mL penicillin, 100 μg/mL streptomycin and 2 mM 1-glutamine. The human gastric carcinoma AGS cell line (CCRC 60102), obtained from the Food Industry Research and Development Institute (Hsinchu, Taiwan), was maintained as described above, except that DMEM/F 12 was used as the medium rather than the RPMI 1640 medium. The human breast carcinoma MCF-7 cell line MCF-7 (ATTC) was cultured in RPMI 1640 medium supplemented with 5% fetal calf serum at 37° C. in a humidified atmosphere of 5% CO2 in air. The mouse macrophage cell line RAW 264.7 was maintained in RPMI 1640 supplemented with 100 U/ml penicillin, 100 μg/ml streptomycin, and 10% heat-inactivated fetal calf serum.
(§2) Cancer cells (2×10^5) were plated in 12-well Petri dishes. The next day, the medium was changed and treated with different concentration of the test compounds or compositions for 24 h. Where individual compounds were to be tested, stock solutions of the compound was prepared to contain 200 μM of the individual hydroxylated or non-hydroxylated PMF in dimethylsulfoxide (DMSO). Control cells were treated with DMSO to a final concentration of 0.05% (v/v). Depending on the objective of the particular experiment, cells were treating with test compound or composition for 1, 3 or 6 days. At the end of incubation, cells were harvested for cell count using a hemocytometer and measuring the cellular total nucleic acid content with the CyQUANT Cell Proliferation Assay Kit (Molecular Probes).
(§3) The PMF compounds were assayed in vitro for cell growth inhibition and for their ability to induce apoptosis in various human cancer cells, including HL-60, AGS, COLO 205, and HT-29 cells, using methods described in Section 8.4 above. Antiproliferative (IC50) and apoptosis-inducing activity (AC50) of PMFs in the HL-60, AGS, COLO 205, and HT-29 cells are reported in Table 9, where *P<0.05, **P<0.01 and ***P<0.001 indicate statistically significant differences from the control group.

COLO205 cells [1] = assay: Cell cycle distribution by flow cytometry; conditions: for Cell Cycle Distribution G0/G1 / Cell Cycle Distribution G2/M / Cell Cycle Distribution S: Table 12
Description: (§4) The human cancer cells (2×10^5) were cultured in 60-mm Petri dishes and incubated for 24 h. After treated with test compounds for 24 h, the cells were then harvested, washed with PBS resuspended in 200 μL of PBS, and fixed in 800 μL of iced 100% ethanol at −20° C. After being left to stand overnight, the cell pellets were collected by centrifugation, resuspended in 1 mL of hypotonic buffer (0.5% Triton X-100 in PBS and 0.5 μg/mL RNase) and incubated at 37° C. for 30 min. Next, 1 mL of propidium iodide solution (50 μg/mL) was added, and the mixture was allowed to stand on ice for 30 min. Fluorescence emitted from the propidium iodide-DNA complex was quantitated after excitation of the fluorescent dye by FACScan cytometry (Becton Dickinson, San Jose, Calif.).
(§5) The effects of the hydrolyzed PMF-enriched compositions, nobiletin and 70% PMF OPE on cell cycle distribution were studied, following the procedures described in Section 8.4. Results for cell cycle distribution in HL-60 cells, COLO205 cells and AGS cells are provided in Table 5, Table 6 and Table 7, respectively. […] In HL-60 cells, G2/M arrest predominated in cells treated with 6N PMF concentrations ≧5 μM and with 1N PMF concentrations ≧25 μM.
(§6) Compounds A-K were evaluated in terms of their effects in arresting cell cycle progression by observing cell cycle phase distribution in cells treated with the compounds. Cells were treated with 5, 10, 25, 50, and 100 μM of one of compound A-K or DMSO (control) for 24 h and subjected to flow cytometric analysis after staining their DNA, as described above.
(§7) Similar cell cycle phase distribution studies were performed in AGS, COLO205, and HT-29 cells in response to individual PMFs, with results reported in Tables 11, 12 and 13, respectively.

AGS cells [2] = assay: Cell cycle distribution by flow cytometry; conditions: for Cell Cycle Distribution G0/G1 / Cell Cycle Distribution G2/M / Cell Cycle Distribution S: Table 11
Description: as §4, §5, §6, §7

COLO205 cells [3] = assay: Cell survival assay (antiproliferative IC50); conditions: Homo sapiens, COLO 205; COLO205 cells; read-out: Antiproliferative IC50
Description: as §1, §2
(§8) 1 N PMF and 6 N PMF compositions containing hydroxylated PMFs, prepared as described in Section 8.3 above, 70% PMF OPE and 5,6,7,8,3′,4′-hexamethoxyflavone (nobiletin) were tested for antiproliferative activity and apoptosis-inducing activity in HL-60, AGS and COLO205 cells as described in Section 8.4 above. Antiproliferative and apoptosis-inducing activities were derived as IC50 values and AC50, values, respectively, where AC50 is the concentration required for 50% apoptosis.
as §3

AGS cells [4] = assay: Cell survival assay (antiproliferative IC50); conditions: Homo sapiens; AGS cells; read-out: Antiproliferative IC50
Description: as §1, §2, §8, §3

HL-60 cells = assay: Cell survival assay (antiproliferative IC50); conditions: Homo sapiens; HL-60 cells; read-out: Antiproliferative IC50
Description: as §1, §2, §8, §3

Row | Structure (SMILES) | IC50 (HT-29 cells) | Cell Cycle Distribution G0/G1 (COLO205 cells [1]; COLO205 cells, 5 μM, 24 h) | Cell Cycle Distribution G2/M (COLO205 cells [1]; COLO205 cells, 5 μM, 24 h) | Cell Cycle Distribution S (COLO205 cells [1]; COLO205 cells, 5 μM, 24 h) | Cell Cycle Distribution G0/G1 (COLO205 cells [1]; COLO205 cells, 10 μM, 24 h) | Cell Cycle Distribution G2/M (COLO205 cells [1]; COLO205 cells, 10 μM, 24 h) | Cell Cycle Distribution S (COLO205 cells [1]; COLO205 cells, 10 μM, 24 h) | Cell Cycle Distribution G0/G1 (COLO205 cells [1]; COLO205 cells, 25 μM, 24 h) | Cell Cycle Distribution G2/M (COLO205 cells [1]; COLO205 cells, 25 μM, 24 h) | Cell Cycle Distribution S (COLO205 cells [1]; COLO205 cells, 25 μM, 24 h) | Cell Cycle Distribution G0/G1 (COLO205 cells [1]; COLO205 cells, 50 μM, 24 h) | Cell Cycle Distribution G2/M (COLO205 cells [1]; COLO205 cells, 50 μM, 24 h) | Cell Cycle Distribution S (COLO205 cells [1]; COLO205 cells, 50 μM, 24 h) | Cell Cycle Distribution G0/G1 (COLO205 cells [1]; COLO205 cells, 100 μM, 24 h) | Cell Cycle Distribution G2/M (COLO205 cells [1]; COLO205 cells, 100 μM, 24 h) | Cell Cycle Distribution S (COLO205 cells [1]; COLO205 cells, 100 μM, 24 h) | Cell Cycle Distribution G0/G1 (AGS cells [2]; 5 μM, 24 h) | Cell Cycle Distribution G2/M (AGS cells [2]; 5 μM, 24 h) | Cell Cycle Distribution S (AGS cells [2]; 5 μM, 24 h) | Cell Cycle Distribution G0/G1 (AGS cells [2]; 10 μM, 24 h) | further results
1 | COc1ccc(-c2oc3c(OC)c(OC)c(OC)c(O)c3c(=O)c2OC)cc1OC [Compound C, 5-hydroxy-3,6,7,8,3′,4′-hexamethoxyflavone] | 77.4 ± 1.82 µM | 63.55 ± 0.99 | 6.16 ± 0.37 | 30.29 ± 0.61 | 75.57 ± 0.83 | 6.37 ± 1.50 | 18.07 ± 0.67 | 74.27 ± 0.83 | 0.43 ± 0.20 | 25.30 ± 0.63 | 58.30 ± 0.57 | 16.70 ± 0.59 | 25.00 ± 1.16 | 51.84 ± 0.31 | 19.04 ± 0.39 | 29.13 ± 0.70 | 45.5 ± 1.06 | 9.9 ± 0.07 | 45.2 ± 0.35 | 29.6 ± 1.77 | Cell cycle arrest, in words (COLO205 cells [1]; COLO 205 cells, 5-100 μM, 24 h): decrease in G1 arrest accompanied by an increase in G2/M phase cell population; Cell Cycle Distribution G2/M (AGS cells [2]; 10 μM, 24 h): 22.0 ± 0.78; Cell Cycle Distribution S (AGS cells [2]; 10 μM, 24 h): 26.1 ± 0.85; Cell Cycle Distribution G0/G1 (AGS cells [2]; 25 μM, 24 h): 20.6 ± 0.42; Cell Cycle Distribution G2/M (AGS cells [2]; 25 μM, 24 h): 47.3 ± 1.13; Cell Cycle Distribution S (AGS cells [2]; 25 μM, 24 h): 31.3 ± 0.49; Cell Cycle Distribution G0/G1 (AGS cells [2]; 50 μM, 24 h): 18.2 ± 0.42; Cell Cycle Distribution G2/M (AGS cells [2]; 50 μM, 24 h): 32.7 ± 0.57; Cell Cycle Distribution S (AGS cells [2]; 50 μM, 24 h): 50.1 ± 1.20; Cell Cycle Distribution G0/G1 (AGS cells [2]; 100 μM, 24 h): 17.0 ± 0.07; Cell Cycle Distribution G2/M (AGS cells [2]; 100 μM, 24 h): 32.4 ± 0.78; Cell Cycle Distribution S (AGS cells [2]; 100 μM, 24 h): 52.0 ± 0.85; Cell cycle arrest, in words (AGS cells [2]; 5-100 μM, 24 h): decrease in G1 arrest accompanied by an increase in G2/M phase cell population; IC50 (COLO205 cells [3]): 67 ± 1.4 µM; IC50 (AGS cells [4]): 17 ± 0.21 µM; IC50 (HL-60 cells): 8.45 ± 1.6 µM
2 | COc1cc(-c2cc(=O)c3c(OC)c(OC)c(OC)c(OC)c3o2)ccc1O [Compound G, 4′-hydroxy-5,6,7,8,3′-pentamethoxyflavone] | 45.8 µM | 67.93 ± 0.74 | 4.71 ± 0.18 | 27.36 ± 0.56 | 72.87 ± 2.37 | 4.51 ± 0.08 | 22.64 ± 2.28 | 73.74 ± 0.51 | 6.47 ± 0.93 | 19.80 ± 0.42 | 73.90 ± 0.41 | 8.17 ± 0.23 | 17.94 ± 0.17 | 73.05 ± 0.30 | 7.61 ± 0.46 | 19.35 ± 0.76 | 55.39 ± 0.47 | 16.76 ± 0.86 | 27.86 ± 1.32 | 60.42 ± 1.28 | Cell Cycle Distribution G2/M (AGS cells [2]; 10 μM, 24 h): 16.80 ± 1.75; Cell Cycle Distribution S (AGS cells [2]; 10 μM, 24 h): 22.79 ± 0.47; Cell Cycle Distribution G0/G1 (AGS cells [2]; 25 μM, 24 h): 68.29 ± 0.95; Cell Cycle Distribution G2/M (AGS cells [2]; 25 μM, 24 h): 14.39 ± 0.16; Cell Cycle Distribution S (AGS cells [2]; 25 μM, 24 h): 17.33 ± 0.80; Cell Cycle Distribution G0/G1 (AGS cells [2]; 50 μM, 24 h): 62.27 ± 0.06; Cell Cycle Distribution G2/M (AGS cells [2]; 50 μM, 24 h): 22.98 ± 1.90; Cell Cycle Distribution S (AGS cells [2]; 50 μM, 24 h): 14.78 ± 1.83; Cell Cycle Distribution G0/G1 (AGS cells [2]; 100 μM, 24 h): 50.27 ± 0.52; Cell Cycle Distribution G2/M (AGS cells [2]; 100 μM, 24 h): 26.85 ± 1.85; Cell Cycle Distribution S (AGS cells [2]; 100 μM, 24 h): 22.88 ± 2.38; IC50 (COLO205 cells [3]): 83.7 ± 4.96 µM; IC50 (AGS cells [4]): 70.5 ± 9.97 µM; IC50 (HL-60 cells): 47.4 ± 3.64 µM
3 | COc1ccc(-c2cc(=O)c3c(O)c(OC)c(OC)c(OC)c3o2)cc1O [Compound K, 5,3′-dihydroxy-6,7,8,4′-tetramethoxyflavone] | 40 µM | 57.68 ± 0.42 | 7.08 ± 0.20 | 34.52 ± 0.21 | 65.81 ± 0.83 | 1.75 ± 0.47 | 32.44 ± 2.28 | 66.63 ± 1.51 | 13.31 ± 1.91 | 20.06 ± 0.40 | 42.30 ± 1.12 | 23.42 ± 0.83 | 34.29 ± 0.29 | 43.58 ± 2.29 | 22.85 ± 2.96 | 33.57 ± 0.67 | 51.75 ± 0.73 | 13.65 ± 0.18 | 34.61 ± 0.91 | 22.20 ± 1.56 | G2/M cell cycle arrest, in words (COLO205 cells [1]; COLO205 cells): strongly potentiated the G2/M cell cycle arrest; G2/M cell cycle arrest, in words (AGS cells [2]): strongly potentiated the G2/M cell cycle arrest; Cell Cycle Distribution G2/M (AGS cells [2]; 10 μM, 24 h): 48.12 ± 1.35; Cell Cycle Distribution S (AGS cells [2]; 10 μM, 24 h): 26.69 ± 0.91; Cell Cycle Distribution G0/G1 (AGS cells [2]; 25 μM, 24 h): 42.63 ± 0.05; Cell Cycle Distribution G2/M (AGS cells [2]; 25 μM, 24 h): 34.57 ± 0.62; Cell Cycle Distribution S (AGS cells [2]; 25 μM, 24 h): 22.81 ± 0.51; Cell Cycle Distribution G0/G1 (AGS cells [2]; 50 μM, 24 h): 43.90 ± 2.37; Cell Cycle Distribution G2/M (AGS cells [2]; 50 μM, 24 h): 35.67 ± 2.29; Cell Cycle Distribution S (AGS cells [2]; 50 μM, 24 h): 20.44 ± 0.08; Cell Cycle Distribution G0/G1 (AGS cells [2]; 100 μM, 24 h): 50.77 ± 1.01; Cell Cycle Distribution G2/M (AGS cells [2]; 100 μM, 24 h): 31.20 ± 0.43; Cell Cycle Distribution S (AGS cells [2]; 100 μM, 24 h): 18.04 ± 1.45; IC50 (COLO205 cells [3]): 11.2 µM; IC50 (AGS cells [4]): 9.61 µM; IC50 (HL-60 cells): 10 µM
